Reference: publication PMC3724450 (Nature communications, 2013)

Test system: HCC4017
Assay: Cell viability assay, patient matched pair
Details: patient matched cancer vs normal lines

COC(=O)CNC(=O)C(=O)OC [D1070, dimethyloxalylglycine]
selectivity for cancer vs. normal patient matched cells: only five-fold selectivity for cancer
